Here are results for nine molecules from PubChem BioAssay AID1259418 (Broad Institute, 2018).

Values joined by “and” are separate entries in the source; they are usually repeats but may differ in a detail not shown here. Equal entries are not always repeated. Records with an inconclusive call do not appear. Active and inactive are the calls of the source.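 How the source made its calls: active means fitted half-maximal concentration of signal decrease at or below twice the sample's top tested concentration; inconclusive means flat curve between -70 and -30 percent, or poor fit; inactive means flat within 30 percent, signal rise, or potency above limit.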

In general, AC50 refers to the concentration giving half of the maximal activity seen.

The target in the assay is T. gondii ME49Luc in IFN-y HeLa, luciferase, 72 h. Description: inhibitors of Toxoplasma growth in IFN-γ-primed HeLa – cell-based, ME49Luc, luciferase, 72 h, dose response (AID 1259418).
For `O=C1CNC[C@@H]2[C@@H](c3ccc(C#Cc4cccnc4)cc3)[C@@H](CO)N12`, the AC50 was 14.1 µM and 18.2 µM.

`Cc1ccc(CCNc2nc(-c3ccc(Cl)cc3)nc3ccccc23)cc1`: the AC50 is 22.7 µM.

Turning to `O=C(Nc1cccc(F)c1)N1CCCCN2[C@@H](CO)[C@H](c3ccc(C#Cc4cccnc4)cc3)[C@@H]2C1`, the AC50 was 4.48 µM.

Turning to `CCSc1ccc(-c2sc(-c3ccc(OC)cc3)nc2C)nn1`, the AC50 was > 39 µM (inactive).

As for `O=C1c2c(O)ccc(O)c2C(=O)c2c(NCCNCCO)ccc(NCCNCCO)c21`, the AC50 was 0.128 µM.

In the case of `CN1c2ccc(-c3ccccc3)cc2[C@@H]2[C@@H](CCN2C(=O)CC2CC2)[C@@H]1CO`, the AC50 is 18.5 µM and > 39 µM (inactive).

Turning to `O=C(Cc1ccc(Cl)cc1)N1CC2(CCN(Cc3ccc(C(F)(F)F)cc3)CC2)C1`, the AC50 is 22.2 µM.

With `COc1ccc(-c2nc(CN(c3ccccc3)S(=O)(=O)c3cccs3)c(C)o2)cc1OC`, the AC50 is 6.84 µM.

Regarding `O=C(Nc1cccnc1)c1cc(-c2cnc(-c3ccccc3)nc2)cn1CC1CC1`, the concentration at half-maximal activity (AC50) was 34.2 µM and 26.9 µM.
